Test results reported in patent US20120100989A1, “3-Aryl-4-(2-thienylmethylene)isoxazol-5(4H)-ones as Fungicides” (Bayer CropScience AG, priority 2010, published 2012).

What was measured:
[1] = tested on: caterpillars of the armyworm (Spodoptera frugiperda); experiment: Spodoptera frugiperda test (spray treatment); format: in vivo; details: maize leaf discs, application rate 500 g/ha
Procedure: Example J Spodoptera Frugiperda Test (Spray Treatment) [table] To produce a suitable preparation of active compound, 1 part by weight of active compound is mixed with the stated amounts of solvent and emulsifier, and the concentrate is diluted with emulsifier-containing water to the desired concentration. Discs of maize leaves (Zea mays) are sprayed with an active compound preparation of the desired concentration and, after drying, populated with caterpillars of the armyworm (Spodoptera frugiperda). After the desired period of time, the effect in % is determined. 100% means that all caterpillars have been killed; 0% means that none of the caterpillars have been killed.

[2] = log P by HPLC on reversed-phase columns (C 18), EEC directive 79/831 Annex V.A8; format: physicochemical; details: pH 2.7
Procedure: The log P values were measured according to EEC directive 79/831 Annex V.A8 by HPLC (High Performance Liquid Chromatography) on reversed-phase columns (C 18), using the method below:
The determination was carried out in the acidic range at pH 2.7 using the mobile phases 0.1% aqueous formic acid and acetonitrile; linear gradient from 10% acetonitrile to 95% acetonitrile.

Alternaria solani = experiment: Alternaria test (tomato)/protective; format: in vivo; details: protective, 500 ppm active compound, evaluation 7 days after inoculation
Procedure: Alternaria Test (Tomato)/Protective [table] To produce a suitable preparation of active compound, 1 part by weight of active compound is mixed with the stated amounts of solvent and emulsifier, and the concentrate is diluted with water to the desired concentration. To test for protective activity, young tomato plants are sprayed with the active compound preparation at the stated application rate. 1 day after the treatment, the plants are inoculated with a spore suspension of Alternaria solani and then remain at 100% relative humidity and 20° C. for 24 h. The plants then remain at 96% relative atmospheric humidity and a temperature of 20° C.

Venturia inaegualis = experiment: Venturia test (apple)/protective; format: in vivo; details: protective, 100 ppm active compound, evaluation 10 days after inoculation
Procedure: Venturia Test (Apple)/Protective [table] To produce a suitable preparation of active compound, 1 part by weight of active compound is mixed with the stated amounts of solvent and emulsifier, and the concentrate is diluted with water to the desired concentration. To test for protective activity, young plants are sprayed with the active compound preparation at the stated application rate. After the spray coating has dried on, the plants are inoculated with an aqueous conidia suspension of the apple scab pathogen Venturia inaegualis and then remain in an incubation cabin at about […] and 100% relative atmospheric humidity for 1 day. The plants are then placed in the greenhouse at about 21° C. and a relative atmospheric humidity of about 90%.

[3] = tested on: Blumeria graminis f sp. tritici; experiment: Blumeria test (wheat)/protective; format: in vivo; details: protective, 1000 ppm active compound, evaluation 7 days after inoculation
Procedure: Blumeria Test (Wheat)/Protective [table] To produce a suitable preparation of active compound, 1 part by weight of active compound is mixed with the stated amounts of solvent and emulsifier, and the concentrate is diluted with water to the desired concentration. To test for protective activity, young plants are sprayed with the active compound preparation at the stated application rate. After the spray coating has dried on, the plants are dusted with spores of Blumeria graminis f sp. tritici.

Plasmopara viticola = experiment: Plasmopara test (grapevine)/protective; format: in vivo; details: protective, 100 ppm active compound, evaluation 6 days after inoculation
Procedure: Plasmopara Test (Grapevine)/Protective [table] To produce a suitable preparation of active compound, 1 part by weight of active compound is mixed with the stated amounts of solvent and emulsifier, and the concentrate is diluted with water to the desired concentration. To test for protective activity, young plants are sprayed with the active compound preparation at the stated application rate. After the spray coating has dried on, the plants are inoculated with an aqueous spore suspension of Plasmopara viticola and then remain in an incubation cabin at about 20° C. and 100% relative atmospheric humidity for 1 day. The plants are then placed in a greenhouse at about 21° C. and about 90% atmospheric humidity for 4 days. The plants are then moistened and placed in an incubation cabin for 1 day.

Phytophthora infestans = format: in vivo; details: protective, 100 ppm active compound, evaluation 3 days after inoculation

Row | Compound | activity (caterpillars killed) [1] [%] | log P [2] | further results
1 | CC(C)(C)c1ccc(C2=NOC(=O)C2=Cc2cccs2)cc1 [I-29] | 80 | 4.39 | –
2 | Cc1ccc(C2=NOC(=O)C2=Cc2ccc(C)s2)cc1 [U-10] | 80 | 3.67 | –
3 | CCOc1ccc(C2=NOC(=O)C2=Cc2cccs2)cc1 [I-58] | 80 | 3.41 | –
4 | COc1ccccc1C1=NOC(=O)/C1=C\c1cccs1 [U-39] | 80 | 2.75 | –
5 | COc1ccc(C2=NOC(=O)C2=Cc2cccs2)cc1 [U-37] | 80 | 2.95 | –
6 | O=C1ON=C(c2ccc(C(F)(F)F)cc2)C1=Cc1cccs1 [I-56] | 80 | 3.68 | –
7 | COc1ccc(C2=NOC(=O)/C2=C\c2cccs2)cc1 [U-38] | 80 | 2.95 | –
8 | O=C1ON=C(c2ccc(F)cc2)C1=Cc1cc(Br)cs1 [I-30] | 80 | 3.76 | –
9 | O=C1ON=C(c2ccc(OC(F)(F)F)cc2)C1=Cc1cccs1 [I-55] | 80 | 3.80 | –
10 | CC1=NOC(=O)/C1=C\c1ccco1 [A-8] | – | – | efficacy (Alternaria solani): 0%; efficacy (Venturia inaegualis): 6%; efficacy [3]: 29%; efficacy (Plasmopara viticola): 28%; efficacy (Phytophthora infestans): 0%
